Here are results for nine compounds from patent US6294565A, “Methods of combatting infectious diseases using dicationic bis-benzimidazoles” (University of North Carolina at Chapel Hill, priority 2000, dated 2001).

pIC50: −log10 of the molar value. Values after ≈ are worked out from the molar mass of the structure shown.

One assay relates to C. neoformans. The experiment in a line: standard in vitro fungal cell growth inhibition assay (broth dilution, M27-P), minimum fungicidal concentration. It is filed as cell-based. Conditions: Cryptococcus neoformans, H99 clinical isolate, RPMI media, inoculum 10^4 cells, less than 0.01% survival of original inoculum. On the procedure:
(§1) Activity of the compounds were assessed using a standard in vitro fungal cell growth inhibition assay (the broth dilution antifungal susceptibility testing of yeast, proposed standard document M27-P, validated by the National Committee for Clinical Laboratory Standards, 1992). Briefly, this broth dilution procedure uses RPMI media, and an inoculum of 10^4 cells. Control tubes contained media alone. After the minimal inhibitor concentration was determined by the above procedure, tubes with no visible growth were subcultured to determine the minimum fungicidal concentration by using criteria of less than 0.01% survival of original inoculum. Two organisms were tested: (1) H99, a clinical isolate of C. neoformans which is fully susceptible to azoles and polyenes in vitro and in vivo; and (2) A39, a clinical isolate of C. albicans which is fully susceptible to azoles and polyenes.
(§2) The MFC's (minimum fungicidal concentration) against these two important AIDS-associated fungal infections are shown in Table 1. MFCs were determined following the method of McGinnis.
On the technique in general: Dilution methods test growth across graded concentrations, often in twofold steps.

A further assay deals with C. albicans. The assay is described as above. The class given is cell-based. The note with it: Candida albicans, A39 clinical isolate, RPMI media, inoculum 10^4 cells, less than 0.01% survival of original inoculum. The procedure: as §1, §2
Another assay deals with L1210 cells. The experiment in a line: in vitro cytotoxicity, 3H-thymidine incorporation in L1210 cells. The note with it: Mus musculus, 48 hours, 6 replicates. It is filed as cell-based. An excerpt: Source: L1210 cells were obtained from the American Type Culture Collection (ATCC#CCL219). This line is a mouse lymphocytic leukemia line first described by E. Law et al., J. Natl. Cancer Inst. 10, 179-192 (1949) as a tumor arising in a mouse following skin paintings with 0.2% methycholanthrene. The first report of suspension culture was reported by G. Moore et al. J. Natl. Cancer Inst. 36, 405-421 (1966). This line has been used extensively for routine screening programs of chemical agents and natural products for cytotoxic activity and is also utilized in preliminary testing for antitumor activity by the NCI in cancer chemotherapy screening studies.
The in vitro cytotoxicity studies were performed essentially as described by Denizot and Lang, "Rapid calorimetric assay for cell growth and survival: Modification of tetrazolium dye procedure giving improved sensitivity and reliability", J. Immunological Methods 89, 271 (1986), but with the following modifications. Since many of the drugs had color interference, the viability of the cells was determined with a ^3 H-thymidine incorporation method. L1210 cells in DMEM +10% fetal calf serum were plated at 2.0×10^4 cells/well. An equal volume of test compound was added to each well diluted to 2× the final concentration in the above medium. Final drug concentrations ranged from 0.05 to 50 μM. After 24 hours at 37° C., 2.5 μCi of ^3 H-Thymidine (5 Ci/mmol) was added to each well. At 48 hours, the cells were harvested onto glass filters and radioactivity was measured with a scintillation counter.
The IC50 value was determined as the concentration leading to a 50% reduction of ^3 H-thymidine incorporation relative to control wells. Each value shown in Table 1, above, resulted from 6 replicates for each compound.
In general terms: Uptake of a labelled nucleoside into DNA is a usual measure of proliferation.

Another assay concerns S. cerevisiae. The experiment in a line: S. cerevisiae IC50 (Table I). It is filed as cell-based. The note with it: Saccharomyces cerevisiae.
For a further assay, the system named is Calf thymus DNA. The experiment in a line: DNA binding by change in melting of the DNA bound to the compounds (ΔTm). The note with it: 259 nm, 18° C./h heating; initial absorbance of 0.3A259. On the procedure:
DNA binding potency was determined for each of the compounds because previous work had determined that the binding of dicationic molecules to DNA is a prerequisite for their antimicrobial activity. See e.g., Tidwell, R. R., et al., Antimicrob. Agents Chemother. 37, 1713-1716 (1993); Bell, C. A., et al., Antimicrob. Agents Chemother. 35, 1099-1107 (1991). The DNA binding of the compounds was determined by the change in melting of the DNA bound to the compounds. The method is well documented and is a considered a standard method for determining DNA binding strength. See Cory, M. et al., J. Med. Chem. 25, 431-438 (1992). In brief, a UV-visible light spectrophotometer with a cuvette changer was interfaced to a microcomputer that recorded the cuvette temperature and DNA-absorbance data at 259 nm as the sample was heated at a rate of 18° C./h. Calf thymus DNA was used at an initial absorbance of 0.3A259. The midpoint of each denaturation curve was determined after graphic selection on the computer of the starting and ending absorbance temperature for each curve of each experiment. DNA or DNA bound to experimental compound was run in each experiment and the ΔTm s were determined from the polynucleotide TM for that experiment.

A word on the MFC: it is the smallest concentration meeting the test's criterion for killing the fungus. For the compound `c1cc2[nH]c(-c3ccc(-c4nc5cc(C6=NCCN6)ccc5[nH]4)o3)nc2cc1C1=NCCN1` [Compound 10, 2,5-bis[5-(2-imidazolinyl)-2-benzimidazolyl]furan], the MFC was 2.6 µM (≈ 1.13 µg/mL) in the assay with C. neoformans and 5.21 µM (≈ 2.27 µg/mL) against C. albicans.
The term pIC50 denotes the negative decadic logarithm of the IC50, by convention in mol/L. A high value points to a low IC50. Take `c1cc(-c2nc3cc(C4=NCCN4)ccc3[nH]2)nc(-c2nc3cc(C4=NCCN4)ccc3[nH]2)c1` [Compound 3, 2,6-bis[5-(2-imidazolinyl)-2-benzimidazolyl]pyridine]: the pIC50 is 5.90 in the assay with L1210 cells and 5.00 in the assay on S. cerevisiae. Further, the MFC in the assay on C. neoformans came to 5.2 µM (≈ 2.33 µg/mL); in the assay on C. albicans, 2.6 µM (≈ 1.16 µg/mL).
`N=C(N)c1ccc2nc(-c3ccc(-c4nc5ccc(C(=N)N)cc5[nH]4)[nH]3)[nH]c2c1` [Compound 1, 2,5-bis(5-amidino-2-benzimidazolyl)pyrrole]: the pIC50 was 6.68 in the assay with L1210 cells and 4.35 in the assay with S. cerevisiae. The ΔTm DNA binding in the assay with Calf thymus DNA turned out to be 18.1 °C. The MFC in the assay on C. neoformans is 2.85 µM (≈ 1.09 µg/mL); in the assay on C. albicans it was 5.71 µM (≈ 2.19 µg/mL).
For `Cn1c(-c2nc3ccc(C(=N)N)cc3[nH]2)ccc1-c1nc2ccc(C(=N)N)cc2[nH]1` [Compound 4, 1-Methyl-2,5-bis(5-amidino-2-benzimidazolyl)pyrrole], in that order: 6.09, 4.05, 20.3 °C, 5.69 µM (≈ 2.26 µg/mL) and 2.84 µM (≈ 1.13 µg/mL).
`c1cc2[nH]c(-c3ccc(-c4nc5cc(C6=NCCN6)ccc5[nH]4)[nH]3)nc2cc1C1=NCCN1` [Compound 2, 2,5-bis-[5-(2-imidazolinyl)-2-benzimidazolyl]pyrrole]: the negative-log IC50 (pIC50) is 5.97 with L1210 cells and more than 6.00 in the assay with S. cerevisiae. Further, the MFC worked out at 107 µM (≈ 46.6 µg/mL) with C. neoformans and 26.8 µM (≈ 11.7 µg/mL) with C. albicans.
Consider `c1cc(-c2nc3ccc(C4=NCCCN4)cc3[nH]2)nc(-c2nc3ccc(C4=NCCCN4)cc3[nH]2)c1` [Compound 8, 2,6-bis[5-(1,4,5,6-tetrahydro-2-pyrimidinyl)-2-benzimidazolyl]pyridine], for which the pIC50 is 5.52 with L1210 cells and 3.52 in the assay on S. cerevisiae. The ΔTm DNA binding with Calf thymus DNA worked out at 14.8 °C. The results for the minimum fungicidal concentration (MFC) in the assay with C. neoformans and against C. albicans were 19 µM (≈ 9.05 µg/mL) and more than 52 µM, respectively.
The like results for `Cn1c(-c2nc3cc(C4=NCCN4)ccc3[nH]2)ccc1-c1nc2cc(C3=NCCN3)ccc2[nH]1` [Compound 5] were, in that order, 5.82, less than 4.00, 22.5 °C, 2.54 µM (≈ 1.14 µg/mL) and 5.09 µM (≈ 2.29 µg/mL).
For the compound `N=C(N)c1ccc2[nH]c(-c3cccc(-c4nc5cc(C(=N)N)ccc5[nH]4)n3)nc2c1` [Compound 7, 2,6-bis(5-amidino-2-benzimidazoyl)pyridine], the pIC50 in the assay on L1210 cells was 4.87; with S. cerevisiae, 4.02. The ΔTm DNA binding in the assay on Calf thymus DNA is 15.3 °C. In addition, the MFC with C. neoformans and with C. albicans was more than 179 µM in each case.
Consider `N=C(N)c1ccc2nc(-c3ccc(-c4nc5ccc(C(=N)N)cc5[nH]4)o3)[nH]c2c1` [Compound 9, 2,5-bis(5-amidino-2-benzimidazolyl)furan], for which the figures for the MFC against C. neoformans and against C. albicans were 1.61 µM (≈ 0.619 µg/mL) and 6.44 µM (≈ 2.48 µg/mL), respectively.
